Experimental data from article PMC9917184, “Synthesis and Biological Evaluation of Potential Oncoimmunomodulator Agents” (International Journal of Molecular Sciences, 2023).
Read-outs that look alike come from different tables or passages of the source.

Columns and labels:
HT-29 = HT-29 cell viability in co-culture with Jurkat T cells (flow cytometry count); type: cell-based, human; conditions: 24 h; for viability at 100 µM: Homo sapiens, HT-29/Jurkat T co-culture, IFN-γ stimulated, read-out: percentage of living HT-29 cells relative to non-treated co-cultures
Experimental: (§1) The effect of the synthesized compounds on tumor cell proliferation in the presence of PD-1-expressing Jurkat T cells was also studied. This assay was carried out, as in the previous experiments, in the HT29, MCF7, and A549 cell lines (see Table 4). Interferon γ-stimulated cancer cells were treated for 24 h with the compounds at 100 μM in presence of Jurkat T cells. Then, cells were counted using flow cytometry. The percentage of living cells relative to non-treated co-cultures (control) was established for both cancer and immune cells in every co-culture.
(§2) To study the effect of the compounds on the cell viability in co-culture with Jurkat T cells or THP-1 cells, 10^5 or 2 × 10^5 of the corresponding cancer cells line per well were seeded and incubated for 24 h, then the medium was changed by one cell culture medium supplemented with IFN-γ (10 ng/mL; human, Invitrogen®) and containing 5 × 10^5 or 10^5 Jurkat T cells or THP-1, respectively, per well and 100 µM of the corresponding compound or DMSO for the […] control. After 24 h/48 h of incubation, supernatants were collected to determine Jurkat T or THP-1 living cells, and on the other hand, corresponding cancer cells were collected with trypsin. Both types of suspension cells were fixed with 4% in PBS paraformaldehyde and counted by flow cytometry.

c-Myc = assay: Total c-Myc relative quantification by flow cytometry in cancer cell lines; type: cell-based, human; conditions: 24 h
Experimental: (§3) The effect of these triazole derivates on c-Myc and PD-L1 was measured in three different cancer cell lines (HT-29, MCF-7, A-549) by flow cytometry. Thus, cells were incubated for 24 h with the corresponding compound at a concentration of 100 μM. Dimethyl sulfoxide (DMSO)-treated cells were used as the negative control, and a PD-L1 inhibitor, BMS-8 [29, 31], was used as a reference control. After permeabilization and fixation, cells were treated with anti-PD-L1 conjugated to AlexaFluor®647 and anti-c-Myc conjugated to fluorescein to determine the amount of both targets related to the negative control. Table 1 show the results in terms of the percentage of the detected target in relation to the negative control. This assay was carried out on cancer cell lines HT-29, MCF-7, and A-549.
(§4) To study the effect of the compounds on every biological target in cancer cell lines, the compounds were used at a 100 µM dose.
(§5) For the assay, 10^5 cells per well were incubated for 24 h with the corresponding dose of the tested compound in a total volume of 500 μL of their growth media.
(§6) To detect total PD-L1 and c-Myc, after the cell treatments, they were collected and fixed with 4% in PBS paraformaldehyde. After fixation, a treatment with 0,5% in PBS Triton™ X-100 was performed, and finally, cells were stained with FITC Mouse monoclonal Anti-c-Myc (ab223913) and Alexa Fluor® 647 Rabbit monoclonal Anti-PD-L1 (ab215251).

MCF-7 = MCF-7 cell viability in co-culture with Jurkat T cells (flow cytometry count); type: cell-based, human; conditions: Homo sapiens, MCF7, MCF-7/Jurkat T co-culture, IFN-γ stimulated, 24 h, read-out: percentage of living MCF-7 cells relative to non-treated co-cultures
Experimental: as §1, §2

A-549 = A-549 cell viability in co-culture with Jurkat T cells (flow cytometry count); type: cell-based, human; conditions: 24 h; for viability at 100 µM: Homo sapiens, A549, A-549/Jurkat T co-culture, IFN-γ stimulated, read-out: percentage of living A-549 cells relative to non-treated co-cultures; for inhibition rate of A-549 cell viability: co-cultured with Jurkat T cells, 100 μM
Experimental: as §1, §2

membrane PD-L1 = target: T1, membrane PD-L1 (Homo sapiens, UniProt Q9NZQ7); assay: Membrane PD-L1 relative quantification by flow cytometry in cancer cells co-cultured with Jurkat T cells; type: cell-based; conditions: Jurkat, 24 h; for remaining activity at 100 µM: relative to non-treated co-cultures, read-out: % PDL1 (membrane); for inhibition at 100 µM: HT-29 co-cultured with Jurkat T cells, read-out: membrane PD-L1 inhibition rate
T1 construct: Alexa Fluor® 647 Rabbit monoclonal Anti-PD-L1 (ab215251); endogenous in cells; host or cells: HT-29, MCF-7, A-549 (A17: MCF-7 only; A14: IFN-gamma-stimulated cancer cells co-cultured with Jurkat T cells)
T1 sequence (Q9NZQ7 19-290): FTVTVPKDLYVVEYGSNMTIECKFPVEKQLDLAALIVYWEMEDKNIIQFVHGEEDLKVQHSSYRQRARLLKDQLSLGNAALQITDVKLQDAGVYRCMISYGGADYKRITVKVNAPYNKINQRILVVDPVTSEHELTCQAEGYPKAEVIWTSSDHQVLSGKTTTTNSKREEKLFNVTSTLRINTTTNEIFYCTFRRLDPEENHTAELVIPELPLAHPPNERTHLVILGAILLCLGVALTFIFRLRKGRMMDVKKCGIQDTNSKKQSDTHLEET
Experimental: (§7) We determined by flow cytometry the effect of these compounds on the expression of membrane PD-L1 in cancer cells when they were co-cultured with immune cells. Thus, interferon γ-stimulated cancer cells were treated for 24 h with the compounds at 100 μM in presence of Jurkat T cells. Then, cells were fixed and treated with anti-PD-L1 conjugated to AlexaFluor®647. We took advantage of the versatility of flow cytometry to simultaneously measure the expression of membrane VEGFR-2 by using anti-VEGFR-2 conjugated to fluorescein.
(§8) To study the effect of the compounds on every biological target in co-cultured cancer cell lines, the compounds were incubated for 24h as described before.
(§9) To detect membrane PD-L1 and VEGFR-2, after the cell treatments, they were collected, fixed with 4% in PBS paraformaldehyde, and stained with FITC Mouse monoclonal Anti-Human VEGFR-2 (ab184903) and Alexa Fluor® 647 Rabbit monoclonal Anti-PD-L1 (ab215251).

PD-L1 = PD-L1 (Homo sapiens, UniProt Q9NZQ7); assay: Total PD-L1 relative quantification by flow cytometry in cancer cell lines; type: cell-based; parameters: Alexa Fluor® 647 Rabbit monoclonal Anti-PD-L1 (ab215251); endogenous in cells; host or cells: HT-29; conditions: 24 h, total PD-L1 relative to negative control (DMSO)
Chain of PD-L1 (Q9NZQ7 19-290): as above
Experimental: as §3, §4, §5, §6

membrane VEGFR-2 = assay: Membrane VEGFR-2 relative quantification by flow cytometry in cancer cells co-cultured with Jurkat T cells; type: cell-based, human; conditions: 100 μM, 24 h, relative to non-treated co-cultures
Experimental: as §7, §8, §9

Jurkat T cells = assay: Jurkat T cell viability in co-culture with cancer cells (flow cytometry count); type: cell-based; conditions: Homo sapiens, 24 h, read-out: percentage of living Jurkat cells relative to non-treated co-cultures
Experimental: as §1, §2

[1] = A-549, 100 µM, relative to negative control (DMSO)
[2] = HT-29, 100 µM, detected target relative to negative control (DMSO)
[3] = MCF-7, 100 µM, relative to negative control (DMSO)
[4] = A549 co-cultured with Jurkat T cells
[5] = HT29 co-cultured with Jurkat T cells
[6] = MCF7 co-cultured with Jurkat T cells

| remaining activity at 100 µM (membrane PD-L1; [4]) | remaining activity at 100 µM (membrane PD-L1; [5]) | remaining activity at 100 µM (membrane PD-L1; [6]) | remaining activity at 100 µM (PD-L1; A549, A-549, 100 µM) | remaining activity at 100 µM (PD-L1; HT-29, 100 µM) | remaining activity at 100 µM (PD-L1; MCF7, MCF-7, 100 µM) | inhibition at 100 µM (membrane PD-L1) | SMILES | viability at 100 µM (HT-29) | % c-Myc (c-Myc; [1]) | % c-Myc (c-Myc; [2]) | % c-Myc (c-Myc; [3]) | viability at 100 µM (MCF-7) | viability at 100 µM (A-549) | %VEGFR2 (membrane) (membrane VEGFR-2; [4]) | %VEGFR2 (membrane) (membrane VEGFR-2; [5]) | %VEGFR2 (membrane) (membrane VEGFR-2; [6]) | viability at 100 µM (Jurkat T cells; A-549/Jurkat T co-culture) | viability at 100 µM (Jurkat T cells; HT-29/Jurkat T co-culture) | viability at 100 µM (Jurkat T cells; MCF-7/Jurkat T co-culture) | inhibition rate of A-549 cell viability (A-549) | further results |
| --- | --- | --- | --- | --- | --- | --- | --- | --- | --- | --- | --- | --- | --- | --- | --- | --- | --- | --- | --- | --- | --- |
| 96 ± 9% | 143 ± 48% | 109 ± 9% | 63 ± 16% | 85 ± 3% | 90 ± 8% |  | COc1ccc(C(OCCc2ccc(CCn3cc(-c4ccccc4)nn3)cc2)(c2ccccc2)c2ccc(OC)cc2)cc1 [Compound 1, 1-(4-(2-(bis(4-methoxyphenyl)(phenyl)methoxy)ethyl)phenethyl)-4-phenyl-1H-1,2,3-triazole] | 81 ± 12% | 182 ± 27% | 135 ± 5% | 73 ± 1% | 56 ± 6% | 127 ± 1% | 79 ± 7% | 85 ± 0% | 76 ± 1% | 88 ± 18% | 108 ± 6% | 86 ± 13% |  |  |
| 60 ± 6% | 124 ± 34% | 82 ± 6% | 76 ± 2% | 82 ± 6% | 115 ± 7% |  | OCCc1ccc(CCn2cc(-c3ccccc3)nn2)cc1 [Compound 2, 2-(4-(2-(4-phenyl-1H-1,2,3-triazol-1-yl)ethyl)phenyl)ethan-1-ol] | 79 ± 20% | 79 ± 10% | 115 ± 8% | 122 ± 13% | 80 ± 6% | 123 ± 25% | 90 ± 10% | 101 ± 11% | 86 ± 2% | 89 ± 17% | 107 ± 4% | 87 ± 22% |  |  |
| 80 ± 3% | 54 ± 3% | 89 ± 3% | 55 ± 8% | 111 ± 8% | 237 ± 19% | 40 to 50% | OCCc1ccc(CCn2cc(-c3ccc(Br)cc3)nn2)cc1 [Compound 4, 2-(4-(2-(4-(4-bromophenyl)-1H-1,2,3-triazol-1-yl)ethyl)phenyl)ethan-1-ol] | 115 ± 14% | 95 ± 2% | 108 ± 8% | 91 ± 8% | 87 ± 6% | 79 ± 5% | 99 ± 4% | 94 ± 3% | 121 ± 19% | 122 ± 11% | 145 ± 9% | 218 ± 69% | around 30% | inhibition rate of HT-29 cell viability (HT-29; co-cultured with Jurkat T cells, 100 μM): not active |
| 75 ± 1% | 63 ± 6% | 66 ± 11% | 62 ± 4% | 104 ± 6% | 110 ± 4% | 40 to 50% | OCCc1ccc(CCn2cc(-c3cccc(Br)c3)nn2)cc1 [Compound 6, 2-(4-(2-(4-(3-bromophenyl)-1H-1,2,3-triazol-1-yl)ethyl)phenyl)ethan-1-ol] | 104 ± 4% | 84 ± 9% | 149 ± 12% | 81 ± 6% | 65 ± 8% | 75 ± 3% | 87 ± 7% | 98 ± 2% | 98 ± 6% | 119 ± 6% | 116 ± 7% | 119 ± 1% | around 30% |  |
| 84 ± 8% | 58 ± 6% | 46 ± 9% | 44 ± 8% | 115 ± 5% | 81 ± 1% | 40 to 50% | OCCc1ccc(CCn2cc(-c3ccccc3Br)nn2)cc1 [Compound 8, 2-(4-(2-(4-(2-bromophenyl)-1H-1,2,3-triazol-1-yl)ethyl)phenyl)ethan-1-ol] | 97 ± 10% | 48 ± 7% | 88 ± 2% | 92 ± 6% | 49 ± 10% | 72 ± 9% | 104 ± 5% | 97 ± 4% | 108 ± 6% | 88 ± 34% | 95 ± 5% | 164 ± 9% | around 30% |  |
| 82 ± 2% | 63 ± 11% | 40 ± 5% | 92 ± 21% | 57 ± 8% | 89 ± 5% | 40 to 50% | COc1ccc(-c2cn(CCc3ccc(CCOC(c4ccccc4)(c4ccc(OC)cc4)c4ccc(OC)cc4)cc3)nn2)cc1 [Compound 9, 1-(4-(2-(bis(4-methoxyphenyl)(phenyl)methoxy)ethyl)phenethyl)-4-(4-methoxyphenyl)-1H-1,2,3-triazole] | 51 ± 17% | 61 ± 3% | 71 ± 10% | 88 ± 4% | 69 ± 9% | 106 ± 1% | 92 ± 3% | 76 ± 13% | 76 ± 10% | 462 ± 99% | 56 ± 18% | 84 ± 17% | no activity | c-Myc inhibition rate (c-Myc; A-549, 100 μM): 40% |
